The test system of assay [1] is non-laminopathic Werner syndrome cells. Nature of the assay: Misshapen nuclei in Werner syndrome cells. It is filed as cell-based, human. An excerpt:
FIG. 10: Remodelin rescues nuclear shape of aged MRC5 cells but not WS cells in a dose dependent manner. A) Misshapen nuclei observed by DAPI staining in MRC5 aged cells in culture, at population doubling 44 (PD44) were rescued by Remodelin. B) Quantification of misshapen nuclei after increasing concentrations of Remodelin (mean of three independent experiments±s.e.m.). C) DAPI staining of non-laminopathic Werner Syndrome cells (WS) showing no nuclear shape improvement upon Remodelin treatment. D) Cell Profiler quantification of misshapen nuclei (mean of three independent experiments±s.d. n>273). Scale bars: 50 μm.
U2OS and SaOS-2 osteosarcoma cells, HeLa cervical cancer cells, A431 melanoma cells, NCI-SNU5 gastric cancer cells, MRC-5 lung fibroblast cells and Werner syndrome patient-derived SV40 fibroblast cells were grown in Dulbecco's modified Eagle medium (DMEM, Sigma-Aldrich) supplemented with 10% fetal bovine serum (BioSera), 2 mM L-glutamine, 100 U per ml penicillin, 100 μg ml^−1 streptomycin. Normal skin primary fibroblasts GM03440 and Hutchinson Gilford Progeria Syndrome (HGPS) skin primary fibroblasts AG11498 and AG06297 were purchased from Coriell Cell Repositories and used between passage number 9-12 and 20-23 respectively. Cells were grown in DMEM supplemented as above. […] Cells were analysed 48 to 72 hours after transfection.

The target in assay [2] is T1, NAT10 purified from HEK293 cells (Homo sapiens, UniProt Q9H0A0).
T1 construct: made in house; host or cells: HEK293 (transient transfection, anti-FLAG immunopurification, elution with triple-Flag peptide)
T1 sequence (Q9H0A0 1-1025): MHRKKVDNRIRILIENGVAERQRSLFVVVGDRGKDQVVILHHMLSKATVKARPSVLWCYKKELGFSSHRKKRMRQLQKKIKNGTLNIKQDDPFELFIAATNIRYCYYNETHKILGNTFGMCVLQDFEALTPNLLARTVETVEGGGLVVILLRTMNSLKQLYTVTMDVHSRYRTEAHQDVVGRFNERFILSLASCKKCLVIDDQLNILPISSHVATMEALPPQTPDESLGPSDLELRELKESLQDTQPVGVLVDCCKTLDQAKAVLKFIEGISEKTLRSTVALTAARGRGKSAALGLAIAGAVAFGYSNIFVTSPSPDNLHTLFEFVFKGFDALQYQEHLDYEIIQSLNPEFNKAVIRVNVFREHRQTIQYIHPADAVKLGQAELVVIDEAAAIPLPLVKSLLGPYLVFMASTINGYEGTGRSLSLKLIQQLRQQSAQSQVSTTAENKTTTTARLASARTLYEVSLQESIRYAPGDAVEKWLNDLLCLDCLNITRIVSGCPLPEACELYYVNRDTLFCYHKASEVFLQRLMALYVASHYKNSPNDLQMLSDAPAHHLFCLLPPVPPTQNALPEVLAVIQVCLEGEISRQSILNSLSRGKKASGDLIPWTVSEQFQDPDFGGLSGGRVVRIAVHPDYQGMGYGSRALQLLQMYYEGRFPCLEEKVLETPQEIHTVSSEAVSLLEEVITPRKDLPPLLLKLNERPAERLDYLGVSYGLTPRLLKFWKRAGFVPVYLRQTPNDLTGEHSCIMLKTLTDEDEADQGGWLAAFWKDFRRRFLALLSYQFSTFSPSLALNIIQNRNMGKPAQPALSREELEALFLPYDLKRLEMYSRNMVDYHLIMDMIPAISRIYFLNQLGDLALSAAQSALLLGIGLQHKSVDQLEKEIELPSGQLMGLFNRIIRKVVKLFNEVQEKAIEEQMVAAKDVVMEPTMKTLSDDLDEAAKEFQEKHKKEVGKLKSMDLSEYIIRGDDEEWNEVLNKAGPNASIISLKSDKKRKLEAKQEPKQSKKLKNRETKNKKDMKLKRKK
Briefly: Circular dichroism spectroscopy of purified NAT10. It is filed as binding. As to conditions: titration, 10 μM FLAG-NAT10, concentration-dependent. As to the method:
HEK293 cells were transiently transfected with NAT10 constructs and harvested after 48 hours in PBS. Cells were lysed for 5 minutes at room temperature in IP lysis buffer (20 mM Tris pH 7.5, 40 mM NaCl, 2 mM MgCl2, 0.5% NP-40) freshly supplemented with 50 U/ml benzonase and EDTA-free protease inhibitor cocktail (Roche). After this initial lysis step, NaCl concentration was adjusted to 450 mM and samples were incubated at 4° C. with rotation. Lysates were clarified by centrifugation (13,200 rpm, 20 minutes at 4° C.), and after recovery NaCl concentration was equilibrated to 150 mM. Lysates were used for immunoprecipitation reaction in IP buffer (25 mM Tris pH 7.5, 150 mM NaCl, 1.5 mM DTT, 10% glycerol, 0.5% NP-40) supplemented with protease inhibitors. Target proteins were captured with anti-FLAG antibody (M2, Sigma-Aldrich) coupled to protein A/G-Dynabeads (Life Sciences). Complexes were washed with IP buffer containing incrementally increasing amounts of NaCl (250 mM, 500 mM, and 1M). Following this, the immuno-complexes were washed in TBS containing gradually decreasing amounts on NaCl (1M, 500 mM, 250 mM, and 150 mM). […]
CD experiments were performed using a Chirascan Circular Dichroism Spectrophotometer (Applied Photophysics, UK). […] CD scans were recorded at 25° C. over the wavelength range of 180 to 350 nm with a 1 second response time, 1 nm pitch and 1.5-nm bandwidth. […]

The source of these data is patent publication US9809562B2, “NAT10 modulators for treating or preventing laminopathies, aging and cancer” (CAMBRIDGE ENTERPRISE LIMITED, priority 2014, dated 2017).

Where a name gives a salt, the structure may show the parent alone.

Take `N#Cc1ccc(-c2csc(NN=C3CCCC3)n2)cc1` [Compound 1, 4-(4-Cyanophenyl)-2-(2-cyclopentylidenehydrazinyl)thiazole]: the “misshapen nuclei of Werner syndrome cells” value in assay [1] is “no detectable effect on misshapen nuclei”.

On to `Clc1ccc(-c2csc(NN=C3CCCC3)n2)cc1` [Compound 2, 4-(4-Chlorophenyl)-2-(2-cyclopentylidenehydrazinyl)thiazole Hydrochloride Salt], for which, in assay [2], the “NAT10 conformation, absolute molar ellipticity at 210 nm” value is recorded as “clear increase in the absolute molar ellipticity”.
